Measurements: US20220177484A1, “MACROCYCLES WITH ANTIOXIDANT AND NEUROPROTECTIVE ACTIVITIES” (INSTITUTO BIOMAR, S.A, priority 2019, published 2022)

Key:
[1] = tested on: SH-SY5Y human neuroblastoma cells expressing mutated huntingtin (pEGFP-Q74); test: Mutated huntingtin aggregation in transfected SH-SY5Y cells; assay type: cell-based; conditions: 5 μM, 24 h
Protocol: Mutated huntingtin proteins aggregation are indicated by white arrows, GFP huntingtin protein (green) and β-tubulin (red). The images were acquired using the Operetta CLS automated confocal microscope, using the 40× water immersion objective.
SH-SY5Y human neuroblastoma cells were maintained in Dulbecco's modified Eagle's medium (DMEM) supplemented with 10% fetal bovine serum (FBS), 2 mM L-glutamine and 100 U/mL penicillin-0.1 mg/mL streptomycin at 37° C. and 5% CO2.
To study the effect of compounds on mutated huntingtin and synuclein that accumulates in cells, SH-SY5Y were transfected with a constitutively active mutated-huntingtin expression vector pEGFP-Q74 (encoding EGFP protein fused to a fragment of huntingtin corresponding to the exon 1 with 74 CAG repeats; c.54GCA[74]; Addgene; #40262) and EGFP-alphasynuclein-A53T (Addgene; #40823).
For transfection assays, cells were seeded (30×10^3 cells/cm^2) on 96-multiwell plates (coated with poliornitine-fibronectine). Cells were transfected with 0.3 μg pEGFP-Q74 plasmid using LTX with Plus Reagent according to the manufacturer's instructions (Thermo Fisher). After 24-h, the medium was changed with a new one, and cells were treated with increasing amounts of GKK1032C and CL0670 (0.1 μM, 1 μM and 5 μM) or DMSO (control cells) for 24 h at 37° C. […]

[2] = tested on: rat cortical primary neurons; test: Protein concentration in neurons incubated with L-BSO and rotenone (neuronal death); assay type: cell-based; conditions: L-BSO and rotenone 3 or 6 h with compound at 0.1, 1 or 5 μg/ml; effect as from 0.1 μg/ml (6 h) (FIG. 4)
C57BL6/J male mice [3] = test: Rotarod test under normal conditions; assay type: in vivo; conditions: once-daily 150 mg/kg intraperitoneal for 3 days, normal mice (FIG. 11)
Protocol: FIG. 11 represents the results from the rotarod test to 8 weeks-old C57BL6/J male mice separated in two groups: Control (mice injected with vehicle) and Compound I (mice injected with a once-daily dose of 150 mg/kg of Compound I).
(§1) Experiments were conducted to evaluate if the intraperitoneal administration of Compound I to mice would have any effect in the animal's motor coordination, fear/anxiety and short-term memory behaviour. The motivation for this experiment is to determine if, under normal conditions, the injection of compound I would affect the behaviour of 8 weeks-old C57BL6/J male mice, in vivo. Mice were separated in group I (vehicle injection only) and group II (compound I injection). The mice were injected with a once-daily dose of 150 mg/kg for 3 days. The tests consisted in the rotarod performance test (at day 1, 2, 3 and 4), the open field test (at day 2 and 3) and the novel object recognition test (at day 4 only).

C57BL6/J male mice [4] = test: Novel Object Recognition test under normal conditions; assay type: in vivo; conditions: once-daily 150 mg/kg intraperitoneal for 3 days, test at day 4
Protocol: as §1

SMILES | mutated huntingtin and number of aggregates [1] | decrease in protein concentration remaining in the wells (neuronal death) [2] | motor coordination (rotarod) (C57BL6/J male mice [3]) | short-term memory (Novel Object Recognition) (C57BL6/J male mice [4])
C=CC1(C)C=C(C)C2C3C(Oc4ccc(cc4)CC4C(=O)NC(O)C4C(=O)C31)C1C(C)CC(C)CC21C (stereo not shown) [CL0670] | significantly decreased | – | – | –
C=CC1(C)C=C(C)C2C3C(Oc4ccc(cc4)CC4(O)NC(=O)C5(OC45)C(=O)C31)C1C(C)CC(C)CC21C (stereo not shown) [Compound I] | – | dose-dependently prevented such decrease | no effect | did not alter
